Patent US9957274B2, “Indane inhibitors of EED and methods of their use” (AbbVie Inc., priority 2016, dated 2018)

What was measured:
[1] = system: H3K27me3 in OCILY19 cells; test: H3K27me3 AlphaLISA assay in OCILY19 cells; type: cell-based; conditions: Homo sapiens, OCI-LY19, 144 h, 6 days with compound, read-out: OCILY-19 IC50
Experimental: (§1) 5,000 cells were plated into each well of 96-well Corning CellBing cell culture plates and incubated overnight at 37° C. in a humidified CO2 incubator. […] The cell culture plates were then incubated for 6 more days. H3K27me3 AlphaLISA assay was performed on the cell culture samples by using AlphaLISAR® H3K27me3 Cellular Detection Kit (PerkinElmer) and 96-well white half-area plates (PerkinElmer).

[2] = system: Pfeiffer cells; test: CTG cell viability assay (CellTiter-Glo); type: cell-based; conditions: Homo sapiens, 240 h; Pfeiffer cells, 10 days with compound, CellTiter-Glo; read-out: Cell Proliferation IC50
Experimental: 1,000 cells were plated into each well of 96-well Corning CellBing cell culture plates and incubated overnight at 37° C. in a humidified CO2 incubator. […] The cell culture plates were then incubated for 10 more days. CTG cell viability assay was performed on the cell culture samples by using CellTiter-Glo® Luminescent Cell Viability Assay Kit (Promega).

[3] = system: H3K27me3 in G401 cells; test: H3K27me3 AlphaLISA assay in G401 cells; type: cell-based; conditions: Homo sapiens, G-401, 144 h, 6 days with compound
Experimental: as §1, with “G401 cells (ATCC catalog # CRL-1441) were maintained in McCoy's 5a medium (ATCC) supplemented with 10% heat-inactivated FBS (HyClone) at 37° C. in a humidified CO2 incubator. OCILY19 cells (DSMZ catalog #ACC 528) were maintained in IMDM (Invitrogen) supplemented with 10% human serum (Sigma) at 37° C. in a humidified CO2 incubator. 5,000” for “5,000”

[4] = molecular target: EED (Homo sapiens, UniProt O75530); test: EED TR-FRET Binding Assay (modified LanthaScreen competition assay)
EED, sequence (O75530 whole entry): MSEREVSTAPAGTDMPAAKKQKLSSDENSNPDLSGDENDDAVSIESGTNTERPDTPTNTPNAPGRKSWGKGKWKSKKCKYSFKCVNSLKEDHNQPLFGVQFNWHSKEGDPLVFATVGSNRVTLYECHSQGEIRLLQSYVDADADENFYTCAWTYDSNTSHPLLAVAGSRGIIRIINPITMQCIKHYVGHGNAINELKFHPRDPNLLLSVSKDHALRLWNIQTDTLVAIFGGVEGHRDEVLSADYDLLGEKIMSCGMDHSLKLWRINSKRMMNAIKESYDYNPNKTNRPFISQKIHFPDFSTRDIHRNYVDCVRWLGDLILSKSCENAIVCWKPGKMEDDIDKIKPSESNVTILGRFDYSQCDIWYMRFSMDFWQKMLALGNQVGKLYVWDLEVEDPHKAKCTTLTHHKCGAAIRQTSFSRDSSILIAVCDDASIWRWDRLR
Procedure, shortened: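 Competition binding in a modified LanthaScreen format, in 20 mM Tris-HCl pH 7.5, 200 mM NaCl, 0.01% Tween-20, 10 uM DTT and 0.05% BSA. Reactions ran 1 hour at 25° C before TR-FRET detection.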

Row | Structure (SMILES) | IC50 [1] | IC50 [3] | IC50 [4] | IC50 [2]
1 | CN(C)C(=O)N1CCN(c2ccc([C@H]3CN(C4CCc5cccc(F)c54)C[C@@H]3N(C)C)cc2)CC1 (mixture of isomers) [Example 63, rac-4-{4-[(3S,4R)-4-(dimethylamino)-1-(7-fluoro-2,3-dihydro-1H-inden-1-yl)pyrrolidin-3-yl]phenyl}-N,N-dimethylpiperazine-1-carboxamide] | 191 nM | 55.6 nM | 1.47 nM | 72.7 nM
2 | COc1ccc([C@@H]2CN(C3CCc4cccc(F)c43)C[C@H]2N(C)C)cc1OC (mixture of isomers) [Example 23, rac-(3S,4R)-4-(3,4-dimethoxyphenyl)-1-(7-fluoro-2,3-dihydro-1H-inden-1-yl)-N,N-dimethylpyrrolidin-3-amine] | 393 nM | 198 nM | 2.72 nM | 921 nM
3 | CN(C)[C@H]1CN(C2CCc3cccc(F)c32)C[C@@H]1c1nn(C)c2ccccc12 (mixture of isomers) [Example 156, rac-(3R,4S)-1-(7-fluoro-2,3-dihydro-1H-inden-1-yl)-N,N-dimethyl-4-(1-methyl-1H-indazol-3-yl)pyrrolidin-3-amine] | 293 nM | 212 nM | 1.41 nM | 375 nM
4 | CN(C)[C@@H]1CN(C2CCc3cccc(F)c32)C[C@H]1c1ccc(-c2cnn(CC(N)=O)c2)nc1 (mixture of isomers) [Example 158, rac-2-(4-{5-[(3R,4S)-4-(dimethylamino)-1-(7-fluoro-2,3-dihydro-1H-inden-1-yl)pyrrolidin-3-yl]pyridin-2-yl}-1H-pyrazol-1-yl)acetamide] | 87.2 nM | 127 nM | 1.37 nM | 385 nM
5 | CN(C)[C@H]1CN(C2CCc3cccc(F)c32)C[C@@H]1C1CCN(c2ccc(C(N)=O)nn2)CC1 (mixture of isomers) [Example 165, rac-6-{4-[(3S,4R)-4-(dimethylamino)-1-(7-fluoro-2,3-dihydro-1H-inden-1-yl)pyrrolidin-3-yl]piperidin-1-yl}pyridazine-3-carboxamide] | 272 nM | 55.9 nM | 0.48 nM | 286 nM
6 | CN(C)[C@@H]1CN(C2CCc3cccc(F)c32)C[C@H]1c1ccc2c(c1)OCO2 (mixture of isomers) [Example 65, rac-(3S,4R)-4-(2H-1,3-benzodioxol-5-yl)-1-(7-fluoro-2,3-dihydro-1H-inden-1-yl)-N,N-dimethylpyrrolidin-3-amine] | 306 nM | 576 nM | 1.75 nM | 948 nM
7 | CN(C)[C@@H]1CN([C@@H]2CCc3cccc(F)c32)C[C@H]1c1ccc(C#N)cc1 (racemic) [Example 19, rac-4-{(3R,4S)-4-(dimethylamino)-1-[(1R)-7-fluoro-2,3-dihydro-1H-inden-1-yl]pyrrolidin-3-yl}benzonitrile] | 597 nM | 725 nM | 12.5 nM | 654 nM
8 | CNC(=O)Cn1cc(-c2ccc([C@@H]3CN(C4CCc5cccc(F)c54)C[C@H]3N(C)C)cn2)cn1 (mixture of isomers) [Example 161, rac-2-(4-{5-[(3R,4S)-4-(dimethylamino)-1-(7-fluoro-2,3-dihydro-1H-inden-1-yl)pyrrolidin-3-yl]pyridin-2-yl}-1H-pyrazol-1-yl)-N-methylacetamide] | 571 nM | 151 nM | 0.669 nM | 293 nM

Continued, in another order:

Row | IC50 [1] | IC50 [3] | IC50 [4] | Structure (SMILES) | IC50 [2]
9 | 162 nM | 63.3 nM | 1.44 nM | CN(C)[C@H]1CN(C2CCc3cccc(F)c32)C[C@@H]1c1cn(C)c2c(C(=O)N3CCN(S(=O)(=O)N4CCC4)CC3)cccc12 (stereo partly drawn) [Example 132, [4-(azetidine-1-sulfonyl)piperazin-1-yl]{3-[(3S,4R)-4-(dimethylamino)-1-(7-fluoro-2,3-dihydro-1H-inden-1-yl)pyrrolidin-3-yl]-1-methyl-1H-indol-7-yl}methanone] | 94.3 nM
10 | 101 nM | 40.7 nM | 0.335 nM | CN(C)[C@H]1CN(C2CCc3cccc(F)c32)C[C@@H]1c1cn(C)c2c(C(=O)N3CC(F)C3)cccc12 (stereo partly drawn) [Example 102, {3-[(3S,4R)-4-(dimethylamino)-1-(7-fluoro-2,3-dihydro-1H-inden-1-yl)pyrrolidin-3-yl]-1-methyl-1H-indol-7-yl}(3-fluoroazetidin-1-yl)methanone] | 73.6 nM
11 | 69.5 nM | 34.4 nM | 0.782 nM | CN(C)[C@H]1CN(C2CCc3cccc(F)c32)C[C@@H]1c1cn(C)c2c(C(=O)N3CC(O)C3)cccc12 (mixture of isomers) [Example 106, rac-{3-[(3S,4R)-4-(dimethylamino)-1-(7-fluoro-2,3-dihydro-1H-inden-1-yl)pyrrolidin-3-yl]-1-methyl-1H-indol-7-yl}(3-hydroxyazetidin-1-yl)methanone] | 74.9 nM
12 | 446 nM | 70.2 nM | 1.2 nM | CN(C)[C@H]1CN(C2CCc3cccc(F)c32)C[C@@H]1c1cn(C)c2cc(C(=O)N3CC[C@@H](O)C3)ccc12 (mixture of isomers) [Example 112, rac-{3-[(3S,4R)-4-(dimethylamino)-1-(7-fluoro-2,3-dihydro-1H-inden-1-yl)pyrrolidin-3-yl]-1-methyl-1H-indol-6-yl}[(3R)-3-hydroxypyrrolidin-1-yl]methanone] | 133 nM
13 | 27.1 nM | 56.4 nM | 0.347 nM | CN(C)[C@H]1CN(C2CCc3cccc(F)c32)C[C@@H]1c1cn(C)c2c(C(=O)N3CC(O)C3)cccc12 (stereo partly drawn) [Example 105, {3-[(3S,4R)-4-(dimethylamino)-1-(7-fluoro-2,3-dihydro-1H-inden-1-yl)pyrrolidin-3-yl]-1-methyl-1H-indol-7-yl}(3-hydroxyazetidin-1-yl)methanone] | 39 nM
14 | 102 nM | 186 nM | 0.739 nM | CN1CCN(c2cccc3c([C@H]4CN(C5CCc6cccc(F)c65)C[C@@H]4N(C)C)cn(C)c23)CC1=O (mixture of isomers) [Example 129, rac-4-{3-[(3S,4R)-4-(dimethylamino)-1-(7-fluoro-2,3-dihydro-1H-inden-1-yl)pyrrolidin-3-yl]-1-methyl-1H-indol-7-yl}-1-methylpiperazin-2-one] | 98.1 nM
15 | 200 nM | 182 nM | 0.739 nM | CCS(=O)(=O)N1CCN(c2ccc([C@H]3CN(C4CCc5cccc(F)c54)C[C@@H]3N(C)C)cc2)CC1 (mixture of isomers) [Example 49, rac-(3R,4S)-4-{4-[4-(ethanesulfonyl)piperazin-1-yl]phenyl}-1-(7-fluoro-2,3-dihydro-1H-inden-1-yl)-N,N-dimethylpyrrolidin-3-amine] | 194 nM
16 | 379 nM | 225 nM | 1.05 nM | CN(C)[C@H]1CN(C2CCc3cccc(F)c32)C[C@@H]1c1cn(C)c2c(C(=O)N3CC(S(C)(=O)=O)C3)cccc12 (mixture of isomers) [Example 110, rac-{3-[(3S,4R)-4-(dimethylamino)-1-(7-fluoro-2,3-dihydro-1H-inden-1-yl)pyrrolidin-3-yl]-1-methyl-1H-indol-7-yl}[3-(methanesulfonyl)azetidin-1-yl]methanone] | 111 nM
17 | 461 nM | 291 nM | 0.494 nM | CN(C)[C@H]1CN(C2CCc3cccc(F)c32)C[C@@H]1c1cn(C)c2ncccc12 (mixture of isomers) [Example 164, rac-(3R,4S)-1-(7-fluoro-2,3-dihydro-1H-inden-1-yl)-N,N-dimethyl-4-(1-methyl-1H-pyrrolo[2,3-b]pyridin-3-yl)pyrrolidin-3-amine] | 148 nM
